From US11479604B2, “Immunomodulatory peptides and methods for modulating the immune system in a subject” (Recepta Biopharma S.A., priority 2017, dated 2022)
Entries after “also recorded” stand apart in the source; their conditions may differ.

Legend:
[1] = system: colorectal CT26 carcinoma cells; test: Subcutaneous syngeneic colorectal carcinoma model; type: in vivo, Balb/c mice; conditions: CT26 of moderate virulence (ATCC, CRL-2638); 300 μg i.p., 5 consecutive days
[2] = system: pancreas carcinoma Panc02; test: Subcutaneous syngeneic pancreatic carcinoma model; type: in vivo, C57BL6 mice; conditions: 300 μg i.p., 5 doses every other day
Method: Male C57BL/6 mice, 6 to 8-week-old were obtained from the Center for Development of Experimental Models (CEDEME), Federal University of Sao Paulo (UNIFESP). For the in vivo metastatic model, C57BL/6 mice received one intravenous (i.v.) injection of 2×10^5 viable B16-F10-Next melanoma cells in 100 μL. […] The control group received 100 μL PBS. Twenty-two days later, mice (minimum n=3 per group) had their lungs harvested, and the number of macroscopic melanotic nodules were counted. The Ethical Committee of Federal University of São Paulo, Project no. 1234, 2011, approved all experiments with animals, according to International guidelines. For the subcutaneous model, mice were injected with 5×10^5 tumor cells suspended in 100 μL of PBS in the right flank via the subcutaneous route. The peptide (300 μg) was solubilized in 10 μL of distilled H2O and 90 μL of PBS and injected per mouse via the intraperitoneal route. The administration of the peptide was performed in 5 alternate days initiating one day after tumor challenge. Tumor longitudinal diameter (D) and transverse diameter (d) were measured every 2 days until the tumor volume reached 3,000 mm3. Animals were sacrificed when the allowed volume was reached. Volume was calculated using the formula v=Dd^2×0.52. […]

[3] = system: CD11c+, MHC II+ bone marrow DCs; test: Marker expression of bone marrow DCs with or without Poly I:C (flow cytometry); type: cell-based, C57Bl6 mice; conditions: 60 h
Method: DCs were obtained from the bone marrow of 6 to 8-week-old C57Bl6 mice. Briefly, femora and tibiae from mice were removed and stripped of muscles and tendons; both bone ends were cut and bone marrow was flushed out with RPMI 1640 medium using a 21-gauge needle and syringe. Cell clusters were dissociated by passing through a cell strainer and 0.45 M ammonium chloride was added for red cell lysis. After washing the cell suspension twice in RPMI 1640, 10×10^6 bone marrow cells per well were cultured in non-treated tissue-culture 6-well plates with 4 ml of complete medium (RPMI 1640 supplemented with 2 mM glutamine, 10,000 U/mL penicillin, 10 mg/mL streptomycin, 50 μM 2-mercaptoethanol, 10% heat-inactivated fetal calf serum with GM-CSF (50 ng/ml). Half of the medium was removed on day 2 and new medium supplemented with GM-CSF (100 ng/ml) and warmed at 37° C. was added. The culture medium was entirely discarded on day 3 and replaced by fresh warmed medium with GM-CSF (50 ng/ml). On day 6, non-adherent cells in the culture supernatant and loosely adherent cells harvested by gentle washing with PBS were pooled and used as the starting cell source for the experiments.
For murine cell analysis, these were stained in ice-cold PBS containing BSA (0.5%) and EDTA (2 mM) using appropriate antibody-fluorophore conjugates. Multiparameter analysis was performed on a BD FACSCanto II analyzer (BD Biosciences) and analyzed with FlowJo software (Tree Star). The following antibodies were used: anti-MHC Class II, anti-CD11c, anti-CD8a, anti-CD3e, anti-CD4, anti-CD86, anti-CD40, anti-CD80, Prior to acquisition, cells were resuspended in PBS/BSA 0.5%/EDTA (2 mM).
DCs were centrifuged and washed once with MACS buffer. Cells (10^6) were resuspended in 45 μl of buffer and 5 μl of antibodies/fluorophore, CD11c APC, MHC II PE, CD80 FITC, CD86 VioBlue and CD40 PE. The samples were acquired in BD FACS Canto II using the FacsDiva software. The data were analyzed by using the FlowJo software.

[4] = system: Myeloid DCs stimulated with recombinant mouse MIF; test: Western blotting of MIF signalling in dendritic cells pre-treated with peptide; type: cell-based
Method: Protein lysates were separated by electrophoresis, and immunoblotting analyses were performed for: total AKT, total p44/42 MAPK (ERK1/2), total IKKα, total IkBα, total NF-kB p65, phospho-AKT (Ser473), phospho-ERK1/2 (Thr202/Tyr204), phospho-IKKα/β (Ser176/180), phospho-IkBα (Ser32) and phospho-NFkB p65 (Ser536). GAPDH was assayed for loading control. HRP-conjugated secondary antibodies were used, followed by incubation with the ECL substrate (Millipore, Billerica, Mass.). All primary and secondary antibodies were purchased from Cell Signaling Technologies (Beverly, Mass., USA). Anti-CD74 receptor was also assayed (Abcam, Cambridge, UK). Phosphorylation ratios were quantified using ImageJ software. Results are represented in arbitrary units normalized to untreated control lanes.
Early incubation with MIF increased p-Akt (Ser473). […] MIF also triggered p-ERK1/2 formation in DCs.

[5] = system: human mo-DC co-cultured with allogeneic lymphocytes; test: Allogeneic lymphocyte proliferation induced by mo-DC of healthy donors (CFSE); type: cell-based; conditions: TNF, tumor lysate and peptide; mo-DC:lymphocyte 1:30
Method: Mo-DC were co-cultured with allogeneic lymphocytes (DC:Ly=1:30) to evaluate their ability to induce lymphocyte proliferation. This was measured by carboxyfluorescein succinimidyl ester (CFSE—Molecular Probes) dilution and activation measured by correlation among CD4/CD25 and Foxp3 expression (Clavijo-Salomon et al., 2016).
After two days in co-culture, the dilution of CFSE in lymphocytes was evaluated as a measurement of lymphocyte proliferation.

[6] = system: LPS stimulated DCs characterized by CD11c+ MHC-II+; test: Co-stimulatory markers of LPS stimulated murine bone-marrow DCs; type: cell-based
From the text: Rb9 immunomodulation of murine bone-marrow dendritic cells (DCs) was also examined focusing on co-stimulatory markers.

[7] = system: B16F10-Nex2 melanoma cells; conditions: as determined in U.S. Pat. No. 9,193,797 B2; cited from earlier work
[8] = 100 μg/ml peptide + 12.5 μg/ml Poly I:C

[CARGETARATFAYWGQGC], NH2 (C-C) [Rb9]
subcutaneous tumor growth [1]: significantly delayed
deaths up to the 40th day [2]: no deaths were recorded
s.c. tumor growth [2]: significantly delayed
CD40 expression over Poly I:C [3, 8]: stimulated CD40 over Poly I:C much like Rb9
CD86 expression over Poly I:C [3, 8]: stimulated CD86 over Poly I:C
expression of CD80 ([3]; 100 μg/ml peptide, with or without Poly I:C): similar
ERK1/2 phosphorylation ([4]; DCs pre-incubated with peptide 6 h, then rMIF): reduced p-ERK1/2
Akt phosphorylation (Ser473) ([4]; DCs pre-incubated with peptide 6 h, then rMIF, early (2 min), vs rMIF alone): Phosphorylation increased even more
NFkB p65 phosphorylation (Ser536) ([4]; DCs pre-stimulated 6 h, then recombinant-MIF, 5, 10 and 20 min): tended to attenuate the MIF response; also recorded: decreased intracellular NFkB p65 phosphorylation
phosphorylation of IKKαβ and IkBα ([4]; DCs pre-stimulated 6 h, then recombinant-MIF, short incubation): tended to attenuate the MIF response; also recorded: decreased IKKαβ and IkBα
lympho-stimulatory ability of mo-DC [5]: further enhance the lympho-stimulatory ability
CD40 expression [6]: regulated CD40 expression
expression of CD80 and CD86 ([6]; Rb9 mainly at 50 μg/ml): significantly stimulated
in vivo protection against metastatic melanoma by CDRs of RebMab200 [7]: displayed this in vivo protection
